± gives the standard deviation of the averaged measurements.
Experiments:
Conditions in all cases: 72 h
HepG2 [1] = assay: drug sensitivity score (DSS) for viability; higher = more toxic; extreme values may be limits of the assay
Caco-2 [2] = assay: as above
U2OS [3] = assay: as above
Vero E6 [4] = assay: as above
Calu-3 [5] = assay: as above
HepG2 [6] = assay: cell viability relative to DMSO; higher = less toxic
Caco-2 [7] = assay: as above
U2OS [8] = assay: as above
Vero E6 [9] = assay: as above
Calu-3 [10] = assay: as above
HepG2 [11] = assay: relative viability EC50 (midpoint between 100% and the lowest measured viability); higher = less toxic
Caco-2 [12] = assay: as above
U2OS [13] = assay: as above
Vero E6 [14] = assay: as above
Calu-3 [15] = assay: as above

Structure (SMILES) | drug sensitivity score (HepG2 [1]) | drug sensitivity score (Caco-2 [2]) | drug sensitivity score (U2OS [3]) | drug sensitivity score (Vero E6 [4]) | drug sensitivity score (Calu-3 [5]) | cell viability (HepG2 [6]; 1 nM) [%] | cell viability (HepG2 [6]; 10 nM) [%] | cell viability (HepG2 [6]; 100 nM) [%] | cell viability (HepG2 [6]; 1000 nM) [%] | cell viability (HepG2 [6]; 10000 nM) [%] | cell viability (Caco-2 [7]; 1 nM) [%] | cell viability (Caco-2 [7]; 10 nM) [%] | cell viability (Caco-2 [7]; 100 nM) [%] | cell viability (Caco-2 [7]; 1000 nM) [%] | cell viability (Caco-2 [7]; 10000 nM) [%] | cell viability (U2OS [8]; 1 nM) [%] | cell viability (U2OS [8]; 10 nM) [%] | cell viability (U2OS [8]; 100 nM) [%] | cell viability (U2OS [8]; 1000 nM) [%] | cell viability (U2OS [8]; 10000 nM) [%] | cell viability (Vero E6 [9]; 1 nM) [%] | cell viability (Vero E6 [9]; 10 nM) [%] | cell viability (Vero E6 [9]; 100 nM) [%] | cell viability (Vero E6 [9]; 1000 nM) [%] | cell viability (Vero E6 [9]; 10000 nM) [%] | cell viability (Calu-3 [10]; 1 nM) [%] | cell viability (Calu-3 [10]; 10 nM) [%] | cell viability (Calu-3 [10]; 100 nM) [%] | cell viability (Calu-3 [10]; 1000 nM) [%] | cell viability (Calu-3 [10]; 10000 nM) [%] | relative viability EC50 (HepG2 [11]) [µM] | relative viability EC50 (Caco-2 [12]) [µM] | relative viability EC50 (U2OS [13]) [µM] | relative viability EC50 (Vero E6 [14]) [µM] | relative viability EC50 (Calu-3 [15]) [µM]
NC(=O)OCC(O)COc1ccc(Cl)cc1 (stereo not given) [chlorphensin-carbamate] | 0 | 0 | 0 | 0 | 0 | 91.7 | 97 | 100 | 100 | 100 | 100 | 109 | 92 | 117 | 93.3 | 99.6 | 99 | 96.3 | 98.2 | 94.3 | 110 | 95.5 | 105 | 96.5 | 103 | 92.6 | 96.3 | 91.6 | 85.5 | 94.2 | > 10 | > 10 | > 10 | > 10 | > 10
Oc1cc(O)c2c(c1)O[C@H](c1ccc(O)c(O)c1)[C@@H](O)C2 [cianidanol] | 0 | 0 | 0 | 0 | 0 | 100 | 99.8 | 84.6 | 102 | 109 | 89.8 | 89.6 | 92.6 | 90.4 | 92.6 | 93.9 | 96.2 | 95.6 | 98.5 | 100 | 98 | 88.5 | 103 | 94.5 | 113 | 96.9 | 101 | 97.4 | 107 | 101 | > 10 | > 10 | > 10 | > 10 | > 10
CC(C(=O)O)c1ccc2c(c1)Cc1ccccc1-2 (stereo not given) [cicloprofen] | 0 | 0 | 0 | 0 | 0 | 101 | 93.7 | 106 | 95.7 | 112 | 96.8 | 97.9 | 99.9 | 102 | 107 | 96.9 | 98 | 94.4 | 98.5 | 106 | 104 | 101 | 101 | 93.8 | 101 | 95.4 | 103 | 97.6 | 93.7 | 90.5 | > 10 | > 10 | > 10 | > 10 | > 10
C=C[C@H]1CN2CC[C@H]1C[C@H]2[C@H](O)c1ccnc2ccccc12 [cinchonidine] | 0 | 0 | 0 | 0 | 0 | 104 ± 7.8 | 94.5 ± 1.2 | 97.05 ± 0.35 | 92 ± 0.42 | 94.2 ± 2.8 | 94.8 ± 2.2 | 98.6 ± 0.42 | 99.8 ± 11 | 114 ± 16 | 116 ± 5.9 | 98.35 ± 0.071 | 103 ± 2 | 97.85 ± 0.78 | 102 ± 1.2 | 99.5 ± 4.2 | 104 ± 4 | 105 ± 5.8 | 106 ± 0.21 | 95.55 ± 0.64 | 97.1 ± 1.7 | 95.2 ± 1.6 | 102 ± 2.5 | 100 ± 4 | 98.7 ± 5 | 106 ± 5.8 | > 10 | > 10 | > 10 | > 10 | > 10
CN1CC(=O)NC1=N [creatinine] | 0 | 0 | 0 | 0 | 0.2 | 97.4 | 97.3 | 104 | 90.9 | 103 | 95.8 | 96.6 | 96.9 | 102 | 99.1 | 100 | 99.5 | 97.3 | 98.4 | 95.5 | 100 | 97 | 93.9 | 96.1 | 98.7 | 97.2 | 99.7 | 85 | 95.7 | 87.5 | > 10 | > 10 | > 10 | > 10 | > 10
CN(C)CCC=C1c2ccccc2C=Cc2ccccc21 [cyclobenzaprine] | 0 | 0 | 0 | 0 | 0 | 111 | 97.9 | 104 | 113 | 103 | 102 | 108 | 101 | 98.8 | 114 | 102 | 98.4 | 103 | 101 | 104 | 100 | 99.6 | 92.2 | 107 | 101 | 98.8 | 99.3 | 94.8 | 99 | 101 | > 10 | > 10 | > 10 | > 10 | > 10

From the supplement of paper PMC13380429
